Reference: patent publication US20260092300A1, “MINIMUM INHIBITORY CONCENTRATION RECOGNITION METHOD, APPARATUS AND DEVICE, AND STORAGE MEDIUM” (AUTOBIO LABTEC INSTRUMENTS CO., LTD., priority 2022, published 2026)
≈ marks a conversion by molar mass, not a printed value.

What was measured:
Assay type in all cases: cell-based
[1] = system: ATCC25922 Escherichia coli; assay: MIC determined by the method (lensless imaging, Siamese neural network image similarity); settings: incubation 2 hours to 4 hours at 37±2° C.
Source text: (§1) The antimicrobial susceptibility test plate is a commonly used experimental equipment in antimicrobial susceptibility tests, which consists of multiple regularly arranged microwells. In practice, the antimicrobial susceptibility test plate is of different specifications, generally including a 96-well plate and a 128-well plate. In the implementation, the operator first prepares the bacterial suspension of a sample (that is, the to-be-tested bacterial strain); opens an antibiotic-coated antimicrobial susceptibility test plate, of which the microwells are pre-coated with the to-be-tested antibiotic with different gradient concentrations (that is, the preset gradient concentrations), where the concentration gradients of the antibiotic may be designed according to the rules of the clinical laboratory standard institute; adds the bacterial suspension to the microwells via a sample loading well; and places the antimicrobial susceptibility test plate on the imaging platform upon completing the sample loading. The processor controls the imaging platform to perform lensless imaging on the microwells at an initial time instant immediately after the sample is added (that is, the time instant of not completing inhibition) and a time instant immediately after the preset incubation time period (that is, the time instant of completing bacteria inhibition) and saves the data, so as to obtain the testing images and the test control images of the to-be-tested bacterial strain. Alternatively, the processor performs lensless imaging on the microwells and the control microwells at the time instant immediately after the preset incubation time period and saves the data.
(§2) For example, the determination result of the minimum inhibitory concentrations of two commonly used clinical quality control strains (ATCC25922 Escherichia coli and ATCC25923 Staphylococcus aureus) through the method according to the embodiments validates the feasibility of the method. Preparation of the bacterial strain includes: sub-culturing the strain for the second to fourth generations for standby; selecting colonies to prepare a bacterial suspension with a McFarland 0.5 standard; pre-coating antibiotic in the microwells of the antimicrobial susceptibility test plate (the concentration of the antibiotic is prepared according to CLSI standard); mixing the bacterial suspension with agarose at a concentration of 0.6% to 1.0% and a temperature of 37° C. to 40° C. in a dilution ratio of 1:300 to 1:500; adding the mixture sample respectively to the microwells by centrifugation; and then placing the antimicrobial susceptibility test plate in an incubator (37±2° C.) to incubate for 2 hours to 4 hours. Data collection includes: when the incubation is completed, placing the antimicrobial susceptibility test plate on the lensless imaging platform to take the images of the wells (that is, microwells) and recording the images corresponding to different antibiotic concentrations, where the minimum inhibitory concentration (MIC) determined by using the method in the embodiments is obtained based on the images. As shown in Table 1 and Table 2, it can be seen from the MIC results determined through the method and antimicrobial susceptibility results of the clinical gold standard broth microdilution test (BMD) that the MIC results determined through the method according to the embodiment are more accurate and reliable, and the MIC results are determined in 2 hours to 4 hours through the method according to the embodiment, which is more efficient.

[2] = system: ATCC25922 Escherichia coli; assay: Broth microdilution test (BMD); settings: clinical gold standard broth microdilution test
[3] = system: ATCC25923 Staphylococcus aureus; assay: MIC determined by the method (lensless imaging, Siamese neural network image similarity); settings: incubation 2 hours to 4 hours at 37±2° C.
Source text: as §1, §2

[4] = system: ATCC25923 Staphylococcus aureus; assay: Broth microdilution test (BMD); settings: clinical gold standard broth microdilution test

Molecule	MIC [1] [µg/mL]	MIC [2] [µg/mL]	The method (MIC) [1] [µg/mL]	BMD (MIC) [2] [µg/mL]	MIC [3] [µg/mL]	MIC [4] [µg/mL]
NCC[C@H](O)C(=O)N[C@@H]1C[C@H](N)[C@@H](O[C@H]2O[C@H](CN)[C@@H](O)[C@H](O)[C@H]2O)[C@H](O)[C@H]1O[C@H]1O[C@H](CO)[C@@H](O)[C@H](N)[C@H]1O [Amikacin]	4 (≈ 6.83 µM)	1 to 4 (≈ 1.71 to 6.83 µM)				
Gentamycin			0.25	0.25 to 0.5		
CC1(C)S[C@@H]2[C@H](NC(=O)[C@H](N)c3ccccc3)C(=O)N2[C@H]1C(=O)O [Ampicillin]	4 (≈ 11.4 µM)	4 (≈ 11.4 µM)			1 (≈ 2.86 µM)	1 (≈ 2.86 µM)
C[C@@H](O)[C@H]1C(=O)N2C(C(=O)O)=C(SCCN=CN)C[C@H]12 [Imipenem]	0.12 (≈ 0.401 µM)	0.06 to 0.25 (≈ 0.2 to 0.835 µM)				
CC[C@H]1OC(=O)[C@H](C)[C@@H](O[C@H]2C[C@@](C)(OC)[C@@H](O)[C@H](C)O2)[C@H](C)[C@@H](O[C@@H]2O[C@H](C)C[C@H](N(C)C)[C@H]2O)[C@](C)(O)C[C@@H](C)C(=O)[C@H](C)[C@@H](O)[C@]1(C)O [Erythromycin]					0.5 (≈ 0.681 µM)	0.25 to 0.5 (≈ 0.341 to 0.681 µM)
CO[C@@]1(NC(=O)Cc2cccs2)C(=O)N2C(C(=O)O)=C(COC(N)=O)CS[C@@H]21 [Cefoxitin]	1 (≈ 2.34 µM)	2 to 4 (≈ 4.68 to 9.36 µM)			4 (≈ 9.36 µM)	1 to 4 (≈ 2.34 to 9.36 µM)
